Test results: publication PMC10382604, “The mirrored cationic peptide as miRNA vehicle for efficient lung cancer therapy” (MedComm, 2023)
Ends that are not written are not given here.

Legend:
Test in all cases: CCK-8 cytotoxicity of the peptides
Details in all cases: CCK-8 assay, peptide alone, Figure S1
[1] = system: BEAS‐2B cells (human bronchial epithelial cells); assay type: cell-based
Protocol: (§1) Cell viability was detected by CCK8 assay (Beyotime Biotechnology, China) based on the universal protocol.[38] The ratio of cell viability was calculated as A treated/A control × 100%.

[2] = system: A549 (lung adenocarcinoma cells); assay type: cell-based, human
Protocol: as §1

[3] = system: NCI‐H1299 (lung adenocarcinoma cells); assay type: cell-based, human
Protocol: as §1

Measured: cytotoxicity

RGDGSRRRRPLGLAGRRRR [RR19]
no significant cytotoxicity: all assays above

RGDGSRRRRPLGLAGRRRRGSRGD [RD24]
no significant cytotoxicity: all assays above

RRRRPLGLAGRRRR [RR14]
no significant cytotoxicity: all assays above
